Assay results reported in ChEMBL document CHEMBL5230147, “Click, release, and fluoresce: In-vivo generation of CO with concomitant synthesis of a fluorescent reporter” (Bioorg Med Chem, 2021).
One block for each compound: values may come before it.

Experiments:
[1] = Half life in C57BL/6 mouse at 100 mg/kg, ip at pH 7.4 measured after 24 hrs; type: ADME, organism-based; settings: in vivo
[2] = Half life in rat at 0.1 mg/kg, IG at pH 7.4 measured for 24 hrs; type: ADME, organism-based; settings: in vivo, po
[3] = Half life in rat at 0.1 mg/kg, IG at pH 1.2 measured for 24 hrs; type: ADME, organism-based; settings: in vivo, po
[4] = Half life in mouse at 15 mg/kg, ip at pH 7.4 measured at 24 to 72 hrs; type: ADME, organism-based; settings: in vivo, time 24-72 hrs
Mus musculus = assay: Anti-colitis activity against TNBS-induced C57BL/6 mouse model assessed as survival rate at 15 mg/kg, ip; type: functional

- half-life [1]: 1.9 min
Structure (SMILES): C#CCN(C)C(=O)C1=C2C(=C(c3ccccc3)C1=O)c1cccc3cccc2c13

- half-life [2]: 24.1 min
- half-life [3]: 17.1 min
Structure (SMILES): C#CC(C)(C)NC(=O)C1=C2C(=C(c3ccccc3)C1=O)c1cccc3cccc2c13

Structure (SMILES): C#CCCN(C(=O)C1=C2C(=C(c3ccccc3)C1=O)c1cccc3cccc2c13)C(C)C
- half-life [4]: 72 min
- Activity (Mus musculus): 75%
